Data taken from the NIST ThermoML archive (doi:10.1021/je049610v).
“And” between values parts separate entries of the source, which are not always exact repeats. Identical values can stand only once. Numbers after ± are expanded uncertainties.

Columns and labels:
[1] = 101 kPa, Liquid
[2] = refractive index (Na D-line) (dimensionless); conditions: 101.33 kPa, Liquid
[3] = xn = mol fraction of the nth substance listed; conditions: 101 kPa, Liquid
[4] = refractive index (Na D-line) (dimensionless); xn = mol fraction of the nth substance listed; conditions: 101 kPa, Liquid

## CN(C)C=O [dimethylformamide]
[1]; 298.15 K
  mass density: 943.9 ± 4 kg/m3
  speed of sound: 1462 ± 8 m/s
  viscosity: 0.801 ± 0.026 mPa·s
[1]; 303.15 K
  mass density: 939.5 ± 4.1 kg/m3
  viscosity: 0.754 ± 0.025 mPa·s
[1]; 308.15 K
  mass density: 935 ± 4.1 kg/m3
  viscosity: 0.711 ± 0.024 mPa·s
[2]; 298.15 K
  refractive index: 1.4288 ± 0.0024
[2]; 303.15 K
  refractive index: 1.4264 ± 0.0024
[2]; 308.15 K
  refractive index: 1.4238 ± 0.0024

## OCCCl [1-chloro-2-hydroxyethane]
[1]; 298.15 K
  mass density: 1200.9 ± 2.5 kg/m3
  speed of sound: 1358 ± 8 m/s
  viscosity: 3.104 ± 0.091 mPa·s
[1]; 303.15 K
  mass density: 1192.5 ± 2.6 kg/m3
  viscosity: 2.669 ± 0.079 mPa·s
[1]; 308.15 K
  mass density: 1187.1 ± 2.7 kg/m3
  viscosity: 2.347 ± 0.07 mPa·s
[2]; 298.15 K
  refractive index: 1.4411 ± 0.0024
[2]; 303.15 K
  refractive index: 1.438 ± 0.0024
[2]; 308.15 K
  refractive index: 1.4326 ± 0.0024

## CCOC(=O)C(=O)OCC [diethyl ethanedioate]
[1]; 298.15 K
  mass density: 1072.3 ± 2.2 kg/m3
  speed of sound: 1267 ± 7 m/s
  viscosity: 1.844 ± 0.056 mPa·s
[1]; 303.15 K
  mass density: 1066.6 ± 2.3 kg/m3
  viscosity: 1.659 ± 0.051 mPa·s
[1]; 308.15 K
  mass density: 1060.7 ± 2.4 kg/m3
  viscosity: 1.508 ± 0.046 mPa·s
[2]; 298.15 K
  refractive index: 1.4084 ± 0.0024
[2]; 303.15 K
  refractive index: 1.4061 ± 0.0024
[2]; 308.15 K
  refractive index: 1.4039 ± 0.0024

## C[S+](C)[O-] [dimethyl sulfoxide]
[1]; 298.15 K
  mass density: 1095.4 ± 2.3 kg/m3
  speed of sound: 1493 ± 8 m/s
  viscosity: 1.984 ± 0.06 mPa·s
[1]; 303.15 K
  mass density: 1090.8 ± 2.3 kg/m3
  viscosity: 1.801 ± 0.055 mPa·s
[1]; 308.15 K
  mass density: 1086.2 ± 2.4 kg/m3
  viscosity: 1.651 ± 0.05 mPa·s
[2]; 298.15 K
  refractive index: 1.4768 ± 0.0064

## ClC(Cl)C(Cl)Cl [1,1,2,2-tetrachloroethane]
[1]; 298.15 K
  mass density: 1587.8 ± 3.5 kg/m3
  speed of sound: 1153 ± 7 m/s
  viscosity: 1.591 ± 0.049 mPa·s
[1]; 303.15 K
  mass density: 1580.6 ± 3.6 kg/m3
  viscosity: 1.471 ± 0.045 mPa·s
[1]; 308.15 K
  mass density: 1573.3 ± 3.6 kg/m3
  viscosity: 1.361 ± 0.042 mPa·s
[2]; 298.15 K
  refractive index: 1.4922 ± 0.0024
[2]; 303.15 K
  refractive index: 1.4894 ± 0.0024
[2]; 308.15 K
  refractive index: 1.4865 ± 0.0024

## C1COCCO1 [1,4-dioxane]
[1]; 298.15 K
  mass density: 1028.3 ± 2.1 kg/m3
  speed of sound: 1345 ± 7 m/s
  viscosity: 1.415 ± 0.044 mPa·s
[1]; 303.15 K
  mass density: 1023.1 ± 2.2 kg/m3
  viscosity: 1.171 ± 0.1 mPa·s
[1]; 308.15 K
  mass density: 1017.8 ± 2.2 kg/m3
  viscosity: 1.068 ± 0.034 mPa·s
[2]; 298.15 K
  refractive index: 1.4181 ± 0.0024
[2]; 303.15 K
  refractive index: 1.4176 ± 0.0024
[2]; 308.15 K
  refractive index: 1.4141 ± 0.0024

## ClC(Cl)=C(Cl)Cl [tetrachloroethene]
[1]; 298.15 K
  mass density: 1614.7 ± 3.5 kg/m3
  speed of sound: 1038 ± 6 m/s
  viscosity: 0.861 ± 0.028 mPa·s
[1]; 303.15 K
  mass density: 1606.9 ± 3.6 kg/m3
  viscosity: 0.817 ± 0.027 mPa·s
[1]; 308.15 K
  mass density: 1599 ± 3.6 kg/m3
  viscosity: 0.782 ± 0.026 mPa·s
[2]; 298.15 K
  refractive index: 1.5036 ± 0.0024
[2]; 303.15 K
  refractive index: 1.501 ± 0.0024
[2]; 308.15 K
  refractive index: 1.498 ± 0.0024

## COc1ccccc1 [anisole]
[1]; 298.15 K
  mass density: 988.9 ± 2 kg/m3
  speed of sound: 1410 ± 8 m/s
  viscosity: 0.992 ± 0.032 mPa·s
[1]; 303.15 K
  mass density: 984.1 ± 2.1 kg/m3
  viscosity: 0.919 ± 0.03 mPa·s and 0.918 ± 0.03 mPa·s
[1]; 308.15 K
  mass density: 979.4 ± 2.1 kg/m3
  viscosity: 0.853 ± 0.028 mPa·s
[2]; 298.15 K
  refractive index: 1.5148 ± 0.0024
[2]; 303.15 K
  refractive index: 1.5124 ± 0.0024
[2]; 308.15 K
  refractive index: 1.5092 ± 0.0024

## ClC(Cl)=C(Cl)Cl [tetrachloroethene] + COc1ccccc1
[3]; 298.15 K, x2 = 0
  mass density: 1614.7 ± 3.5 kg/m3
  speed of sound: 1038 ± 6 m/s
  viscosity: 0.861 ± 0.028 mPa·s
[3]; 298.15 K, x2 = 0.0979
  mass density: 1548.6 ± 3.3 kg/m3
  speed of sound: 1065 ± 6 m/s
  viscosity: 0.859 ± 0.028 mPa·s
[3]; 298.15 K, x2 = 0.1962
  mass density: 1483.4 ± 3.2 kg/m3
  speed of sound: 1094 ± 6 m/s
  viscosity: 0.854 ± 0.028 mPa·s
[3]; 298.15 K, x2 = 0.3035
  mass density: 1413.9 ± 3 kg/m3
  speed of sound: 1127 ± 7 m/s
  viscosity: 0.854 ± 0.028 mPa·s
[3]; 298.15 K, x2 = 0.4024
  mass density: 1350.9 ± 2.9 kg/m3
  speed of sound: 1159 ± 7 m/s
  viscosity: 0.861 ± 0.028 mPa·s
[3]; 298.15 K, x2 = 0.5044
  mass density: 1286.9 ± 2.7 kg/m3
  speed of sound: 1195 ± 7 m/s
  viscosity: 0.874 ± 0.028 mPa·s
[3]; 298.15 K, x2 = 0.6045
  mass density: 1225.3 ± 2.6 kg/m3
  speed of sound: 1232 ± 7 m/s
  viscosity: 0.892 ± 0.029 mPa·s
[3]; 298.15 K, x2 = 0.7033
  mass density: 1165.1 ± 2.4 kg/m3
  speed of sound: 1271 ± 7 m/s
  viscosity: 0.909 ± 0.03 mPa·s
[3]; 298.15 K, x2 = 0.8036
  mass density: 1105 ± 2.3 kg/m3
  speed of sound: 1314 ± 7 m/s
  viscosity: 0.935 ± 0.03 mPa·s
[3]; 298.15 K, x2 = 0.8974
  mass density: 1049.2 ± 2.1 kg/m3
  speed of sound: 1359 ± 8 m/s
  viscosity: 0.961 ± 0.031 mPa·s
[3]; 303.15 K, x2 = 0
  mass density: 1606.9 ± 3.6 kg/m3
  viscosity: 0.817 ± 0.027 mPa·s
[3]; 303.15 K, x2 = 0.0979
  mass density: 1540.9 ± 3.4 kg/m3
  viscosity: 0.818 ± 0.027 mPa·s
[3]; 303.15 K, x2 = 0.1962
  mass density: 1476.1 ± 3.2 kg/m3
  viscosity: 0.813 ± 0.027 mPa·s
[3]; 303.15 K, x2 = 0.3035
  mass density: 1407 ± 3.1 kg/m3
  viscosity: 0.811 ± 0.027 mPa·s
[3]; 303.15 K, x2 = 0.4024
  mass density: 1343.5 ± 2.9 kg/m3
  viscosity: 0.815 ± 0.027 mPa·s
[3]; 303.15 K, x2 = 0.5044
  mass density: 1280.5 ± 2.8 kg/m3
  viscosity: 0.825 ± 0.027 mPa·s
[3]; 303.15 K, x2 = 0.6045
  mass density: 1219.3 ± 2.6 kg/m3
  viscosity: 0.839 ± 0.028 mPa·s
[3]; 303.15 K, x2 = 0.7033
  mass density: 1159.6 ± 2.5 kg/m3
  viscosity: 0.855 ± 0.028 mPa·s
[3]; 303.15 K, x2 = 0.8036
  mass density: 1099.6 ± 2.4 kg/m3
  viscosity: 0.877 ± 0.029 mPa·s
[3]; 303.15 K, x2 = 0.8974
  mass density: 1044.8 ± 2.2 kg/m3
  viscosity: 0.898 ± 0.029 mPa·s
[3]; 308.15 K, x2 = 0
  mass density: 1599 ± 3.6 kg/m3
  viscosity: 0.782 ± 0.026 mPa·s
[3]; 308.15 K, x2 = 0.0979
  mass density: 1533.6 ± 3.5 kg/m3
  viscosity: 0.776 ± 0.026 mPa·s
[3]; 308.15 K, x2 = 0.1962
  mass density: 1469 ± 3.3 kg/m3
  viscosity: 0.77 ± 0.025 mPa·s
[3]; 308.15 K, x2 = 0.3035
  mass density: 1400.4 ± 3.2 kg/m3
  viscosity: 0.767 ± 0.025 mPa·s
[3]; 308.15 K, x2 = 0.4024
  mass density: 1337.9 ± 3 kg/m3
  viscosity: 0.77 ± 0.026 mPa·s
[3]; 308.15 K, x2 = 0.5044
  mass density: 1274.6 ± 2.9 kg/m3
  viscosity: 0.776 ± 0.026 mPa·s
[3]; 308.15 K, x2 = 0.6045
  mass density: 1213.5 ± 2.7 kg/m3
  viscosity: 0.787 ± 0.026 mPa·s
[3]; 308.15 K, x2 = 0.7033
  mass density: 1154.1 ± 2.6 kg/m3
  viscosity: 0.799 ± 0.026 mPa·s
[3]; 308.15 K, x2 = 0.8036
  mass density: 1094.5 ± 2.4 kg/m3
  viscosity: 0.817 ± 0.027 mPa·s
[3]; 308.15 K, x2 = 0.8974
  mass density: 1039.2 ± 2.3 kg/m3
  viscosity: 0.835 ± 0.028 mPa·s
[4]; 298.15 K, x2 = 0
  refractive index: 1.5036 ± 0.0024
[4]; 298.15 K, x2 = 0.0979
  refractive index: 1.5044 ± 0.0024
[4]; 298.15 K, x2 = 0.1962
  refractive index: 1.5053 ± 0.0024
[4]; 298.15 K, x2 = 0.3035
  refractive index: 1.5065 ± 0.0024
[4]; 298.15 K, x2 = 0.4024
  refractive index: 1.5075 ± 0.0024
[4]; 298.15 K, x2 = 0.5044
  refractive index: 1.5086 ± 0.0024
[4]; 298.15 K, x2 = 0.6045
  refractive index: 1.5099 ± 0.0024
[4]; 298.15 K, x2 = 0.7033
  refractive index: 1.5111 ± 0.0024
[4]; 298.15 K, x2 = 0.8036
  refractive index: 1.5124 ± 0.0024
[4]; 298.15 K, x2 = 0.8974
  refractive index: 1.5135 ± 0.0024
[4]; 303.15 K, x2 = 0
  refractive index: 1.501 ± 0.0024
[4]; 303.15 K, x2 = 0.0979
  refractive index: 1.5015 ± 0.0024
[4]; 303.15 K, x2 = 0.1962
  refractive index: 1.5023 ± 0.0024
[4]; 303.15 K, x2 = 0.3035
  refractive index: 1.5034 ± 0.0024
[4]; 303.15 K, x2 = 0.4024
  refractive index: 1.5044 ± 0.0024
[4]; 303.15 K, x2 = 0.5044
  refractive index: 1.5056 ± 0.0024
[4]; 303.15 K, x2 = 0.6045
  refractive index: 1.5069 ± 0.0024
[4]; 303.15 K, x2 = 0.7033
  refractive index: 1.5083 ± 0.0024
[4]; 303.15 K, x2 = 0.8036
  refractive index: 1.5096 ± 0.0024
[4]; 303.15 K, x2 = 0.8974
  refractive index: 1.5101 ± 0.0024
[4]; 308.15 K, x2 = 0
  refractive index: 1.498 ± 0.0024
[4]; 308.15 K, x2 = 0.0979
  refractive index: 1.4986 ± 0.0024
[4]; 308.15 K, x2 = 0.1962
  refractive index: 1.4993 ± 0.0024
[4]; 308.15 K, x2 = 0.3035
  refractive index: 1.5004 ± 0.0024
[4]; 308.15 K, x2 = 0.4024
  refractive index: 1.5014 ± 0.0024
[4]; 308.15 K, x2 = 0.5044
  refractive index: 1.5026 ± 0.0024
[4]; 308.15 K, x2 = 0.6045
  refractive index: 1.504 ± 0.0024
[4]; 308.15 K, x2 = 0.7033
  refractive index: 1.5054 ± 0.0024
[4]; 308.15 K, x2 = 0.8036
  refractive index: 1.5068 ± 0.0024
[4]; 308.15 K, x2 = 0.8974
  refractive index: 1.508 ± 0.0024
